Assay results published in patent publication US20240238281A1, “PIPERAZINE DERIVATIVES AND APPLICATION THEREOF” (priority 2021, published 2024).
“Also recorded” adds a separate entry of the source. Read-outs that look alike come from different tables or passages of the source.

Assays:
[1] = biological target: T1, MC4R (Homo sapiens, UniProt P32245); assay: In vitro activity of MCR receptors, intracellular cAMP signal (HEK293T/MCR cell line), MC4R; type: cell-based; conditions: cAMP, HEK293T/MCR cell line; read-out: MC4R EC50
T1 construct: expressed in transfected cells
T1 sequence (P32245 whole entry): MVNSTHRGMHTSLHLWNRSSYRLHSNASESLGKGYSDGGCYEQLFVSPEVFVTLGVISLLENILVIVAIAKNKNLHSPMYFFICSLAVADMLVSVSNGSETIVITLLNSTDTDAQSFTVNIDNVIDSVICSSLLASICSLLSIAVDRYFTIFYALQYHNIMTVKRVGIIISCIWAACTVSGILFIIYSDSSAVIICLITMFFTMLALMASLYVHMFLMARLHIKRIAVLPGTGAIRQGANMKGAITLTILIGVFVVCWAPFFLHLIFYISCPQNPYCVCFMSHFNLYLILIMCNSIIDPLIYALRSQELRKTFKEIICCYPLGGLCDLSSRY
Experimental: (§1) Test purpose: to evaluate the agonistic effect of the compound on MCRs by detecting intracellular cAMP signal changes.
(§2) Cells were resuspended with 1×PBS+500 μM IBMX. 10 μL of the cell suspension was added into a 384-well plate to be tested, and the cell concentration was adjusted to 1×10^4 cells per well for later use. A pre-prepared solution of the compound to be tested was added, and dimethyl sulfoxide of the same volume was added to blank control wells. The test plate was centrifuged at 300 rpm for 1 minute, incubated at 37° C. for 30 minutes, and added with 5 μL of cAMP-d2 and 5 μL of a CAMP-cry antibody detection reagent. The test plate was centrifuged at 300 rpm for 1 minute, and incubated at room temperature for 60 minutes. The test plate was placed in the Envision multifunctional microplate reader for reading, with a detection wavelength of 665/615 nm.

[2] = biological target: T2, MC5R (Homo sapiens, UniProt P33032); assay: In vitro activity of MCR receptors, intracellular cAMP signal (HEK293T/MCR cell line), MC5R; type: cell-based; conditions: cAMP, HEK293T/MCR cell line; read-out: MC5R EC50
T2 construct: expressed in transfected cells
T2 sequence (P33032 whole entry): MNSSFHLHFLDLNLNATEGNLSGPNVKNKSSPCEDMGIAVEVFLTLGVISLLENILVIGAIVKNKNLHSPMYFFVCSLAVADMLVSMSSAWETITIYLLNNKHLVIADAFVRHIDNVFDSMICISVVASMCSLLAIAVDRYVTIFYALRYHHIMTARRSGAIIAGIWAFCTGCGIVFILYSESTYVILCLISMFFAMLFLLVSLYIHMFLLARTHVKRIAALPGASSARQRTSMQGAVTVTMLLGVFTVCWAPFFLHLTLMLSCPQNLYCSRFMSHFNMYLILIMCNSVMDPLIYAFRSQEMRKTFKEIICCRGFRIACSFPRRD
Experimental: as §1, §2

[3] = Pharmacokinetic parameters in rat plasma; type: in vivo, SD rats; conditions: SD
Experimental: 4 healthy SD rats of 6-9 weeks old were selected and randomly divided into two groups, 2 rats in each group. One group was administered with the test compound via intravenous injection, with 5% DMSO+95% (a 10% HP-β-CD aqueous solution) as a solvent, and the other group was administered with the test compound by gavage, with a 50 mM citric acid buffer solution at pH=5 as a solvent. Plasma samples were collected from animals in both intravenous and intragastric groups at 0.083 hour, 0.25 hour, 0.5 hour, 1.0 hour, 2.0 hours, 4.0 hours, 6.0 hours, 8.0 hours and 24 hours after administration, respectively. Quantitative analysis of all biological samples was performed using an LC-MS/MS method, with WinNonlin™ Version 6.3 (Pharsight, Mountain View, CA) pharmacokinetic software, to calculate relevant pharmacokinetic parameters using a […] model linear logarithmic trapezoid method. AUCo-last represented an area under a plasma concentration time curve from a time point zero to a last time point where the concentration can be detected; p.o. represented oral administration; i.v. represented intravenous injection; T1/2 represented the half life; CL represented the clearance rate; Vd represented the apparent distribution volume; AUC0-last represented the area under the curve; Cmax represented the peak concentration; Tmax represented the peak time; and F % represented oral bioavailability.

[4] = Drug concentration in brain tissues of rats, intravenous injection; type: in vivo, SD rats; conditions: rat, i.v. 2 mg/kg
Experimental: 3.1 6 healthy SD rats of 6-9 weeks old were selected, and the test compound was administered via intravenous injection. Two animals were randomly selected at 0.5 hour, 2 hours and 4 hours after administration respectively, and plasma and brain tissue samples were collected, and the quantitative assay of all biological samples was performed using the LC-MS/MS method.

[5] = Drug concentration in brain tissues of rats, oral gavage; type: in vivo; conditions: SD, rat, p.o. 20 mg/kg
Experimental: 3.2 6 healthy SD rats of 6-9 weeks old were selected, and the test compound was administered by oral gavage (with a solvent of 50 mM citrate buffer solution, pH=5). Two animals were randomly selected at 0.5 hour, 1 hour and 4 hours after administration respectively, and plasma and brain tissue samples were collected for quantitative analysis of all biological samples using the LC-MS/MS method.

[6] = system: MDR1-MDCKII cells; assay: In vitro MDCK-MDR1 permeability; type: in vitro ADME; conditions: MDR1-MDCKII permeability and efflux rating
Experimental: (§3) MDR1-MDCKII cells (from the Netherlands Cancer Institute) were inoculated onto a 96-plate (from Corning) with a cell density of 2.5×10^5 cells/mL, and cultured for 4-7 days to form a co-polymeric cell monolayer. A Hank's equilibrium salt buffer (pH=7.40±0.05) containing 10 mM of 4-hydroxyethyl piperazine ethanesulfonic acid was used as a transport buffer. The bidirectional transport of the test compound at a concentration of 2 μM was tested, and the concentration of DMSO in the incubation system was controlled below 1%. After sample loading, the cell plate was placed at 37±1° C. for inoculation with 5% CO2 under a saturated humidity condition for 150 minutes. All samples were subjected to quantitative analysis using the LC-MS/MS method.
(§4) The apparent permeability coefficient (Papp, cm/s), the efflux ratio, and the recovery rate were calculated using the following formula.
(§5) The apparent permeability coefficient (Papp, cm/s) was calculated using the following formula: […]
(§6) DC/dt was the cumulative concentration (μM/s) of the compound at the receiving end per unit time; Vr was the volume of the solution at the receiving end (the solution volumes at the top and base ends were 0.075 mL and 0.250 mL, respectively); A was the relative surface area of the cell monolayer (0.0804 cm^2); and C0 was the initial concentration (nM) of a test sample at the administration end or the peak area ratio of a control sample.
(§7) The efflux ratio was calculated using the following formula: […]
(§8) The recovery rate was calculated using the following formula: […]
(§9) C0 was the initial concentration (nM) of the test sample at the administration end or the peak area ratio of the control sample; Vd was the volume of the administration end (0.075 mL on the top side and 0.250 mL on the base side); Cd and Cr were the final concentrations (nM) of the test sample at the administration end and the receiving end, or the peak area ratios of the control sample , respectively.

[7] = system: MDR1; assay: In vitro MDCK-MDR1 permeability; type: in vitro ADME; conditions: dog, MDCK-MDR1, pH 7.4, MDR1-MDCKII monolayer, 2 μM, 150 minutes
Experimental: as §3, §4, §5, §6, §7, §8, §9

## C[C@@H]1CN(C(=O)[C@@H]2CN(C3CCOCC3)C[C@H]2c2ccc(F)cc2F)C[C@H](C)N1c1ccc(F)cc1 (single isomer, unassigned) [Compound 7]
[1]
  EC50: 12 nM
[2]
  EC50: > 10000 nM
[3]; iv, i.v. 2 mg/kg
  AUC(0-t): 0.897 µM·h
  Vd: 8 L/kg
  clearance: 73 mL/min/kg
  half-life: 1.5 h
[3]; p.o. 5 mg/kg, oral bioavailability
  bioavailability: 37%
[3]; po, p.o. 5 mg/kg
  AUC(0-t): 0.796 µM·h
  Cmax: 195 nM
  Tmax: 1 h
[4]; SD, brain, iv, 0.5 hour, read-out: Brain drug concentration
  concentration at 0.5 h: 2830 nM
[4]; SD, brain, iv, 2 hours, read-out: Brain drug concentration
  concentration at 2 h: 965 nM
[4]; SD, brain/plasma, iv, 0.5 hour, read-out: Brain-to-blood ratio
  Kp at 0.5 h: 7.8
[4]; SD, brain/plasma, iv, 2 hours, read-out: Brain-to-blood ratio
  Kp at 2 h: 6.9
[4]; SD, plasma, iv, 0.5 hour, read-out: Plasma drug concentration
  concentration at 0.5 h: 362 nM
[4]; SD, plasma, iv, 2 hours, read-out: Plasma drug concentration
  concentration at 2 h: 141 nM
[4]; 4 hours
  Brain drug concentration (nmol/L): BQL
  Plasma drug concentration (nmol/L): BQL
[5]; brain, 0.5 hour, read-out: Brain drug concentration
  concentration at 0.5 h: 8600 nM
[5]; brain, 1 hour, read-out: Brain drug concentration
  concentration at 1 h: 9680 nM
[5]; brain, 4 hours, read-out: Brain drug concentration
  concentration at 4 h: 11400 nM
[5]; brain/plasma, 0.5 hour
  Kp uu at 0.5 h: 1.5
[5]; brain/plasma, 0.5 hour, read-out: Brain-to-blood ratio
  Kp at 0.5 h: 11
[5]; brain/plasma, 1 hour
  Kp uu at 1 h: 1.5
[5]; brain/plasma, 1 hour, read-out: Brain-to-blood ratio
  Kp at 1 h: 10.8
[5]; brain/plasma, 4 hours
  Kp uu at 4 h: 1.3
[5]; brain/plasma, 4 hours, read-out: Brain-to-blood ratio
  Kp at 4 h: 9.5
[5]; plasma, 0.5 hour, read-out: Plasma drug concentration
  concentration at 0.5 h: 783 nM
[5]; plasma, 1 hour, read-out: Plasma drug concentration
  concentration at 1 h: 899 nM
[5]; plasma, 4 hours, read-out: Plasma drug concentration
  concentration at 4 h: 1200 nM
[6]
  Rating: High permeability,; also recorded: low efflux
[7]
  efflux ratio at 150 min, 2 μM: 0.98
[7]; pH 7.40
  Papp A→B at 150 min, 2 μM: 13.5 ×10⁻⁶ cm/s
  Papp B→A at 150 min, 2 μM: 13.2 ×10⁻⁶ cm/s
